Results as given in publication PMC11243638, “Enhanced Antioxidant, Anti-Aging, Anti-Tyrosinase, and Anti-Inflammatory Properties of Vanda coerulea Griff. Ex Lindl. Protocorm through Elicitations with Chitosan” (Plants, 2024).
pIC50: −log10 of the molar value. Marks after values point to notes of the source that are not given here.

How the values were obtained:
[1] = tested on: chorioallantoic membrane of fertilized hen eggs; experiment: Hen's egg-chorioallantoic membrane (HET-CAM) irritation test; conditions: 1% w/v, positive control
Description: The irritation potency of the extracts derived from the adult V. coerulea plant and its protocorms was evaluated through a HET-CAM test, which was previously described by Luepke and Kemper (1986). The fertilized black hen eggs from the Pradu Hang Dam Chiang Mai breed aged between 7 and 9 days were used in the HET-CAM test. As the embryos were in the early stages of development, ethical approval was not required. Typically, hen eggs require 21 days of incubation, and the fertilized eggs aged between 7 to 9 days, which was less than halfway through their incubation cycle, were not considered animals. Prior to the test, the eggshell above the air cell was cracked open, and the inner membrane was moistened with a normal saline solution. […] The duration until the first appearance of each irritation sign was meticulously monitored and recorded in seconds, which enabled the subsequent computation of the irritation score (IS) using the following equation:IS = [(301 − t(h))/300] × 5 + [(301 − t(l))/300] × 7 + [(301 − t(c))/300] × 9,(8) where t(h) is the time of the first appearance of hemorrhage in seconds, t(l) is the time of the first appearance of vascular lysis in seconds, and t(c) is the first appearance of vascular coagulation in seconds. […]

[2] = biological target: T1, porcine pancreatic elastase (Sus scrofa, UniProt P00772); experiment: Elastase inhibition, spectrophotometric assay; type: biochemical; conditions: mean ± SD, triplicate; ND = not determined due to low potency
T1 construct: purchased Sigma-Aldrich; host or cells: porcine pancreas
Description: The capability of the extracts derived from the adult V. coerulea plant and its protocorms to inhibit elastase activities was evaluated through a spectrophotometric assay, which was modified from the methods described by Thring et al. (2009). Initially, an elastase solution at a concentration of 0.03 units/mL was prepared, comprising elastase sourced from porcine pancreas, along with 0.2 M Tris-HCl buffer pH 8.0. Subsequently, 10 µL of the sample solution was combined with 40 µL of the elastase solution. After the resulting mixture was incubated for 15 min at ambient temperature, 100 µL of 1.6 mM AAAVPN in tris HCl buffer pH 8.0 was introduced to initiate the enzymatic reaction. Immediately, the absorbance was measured kinetically at 410 nm for a duration of 20 min using a multimode microplate reader (BMG Labtech GmbH, Ortenberg, Germany). […] Various concentrations of each extract were evaluated, and their elastase inhibitions were plotted against their logarithmic concentrations to generate dose–response curves. The IC50 values were calculated from the curves using GraphPad Prism (version 8.0.2, GraphPad Software, Boston, MA, USA). […] was used as the positive control. The analysis was performed in triplicate.

[3] = biological target: collagenase from Clostridium histolyticum; experiment: Collagenase (MMP-1) inhibition, spectrophotometric assay with FALGPA; type: biochemical; conditions: mean ± SD, triplicate; ND = not determined due to low potency
Description: The capability of the extracts derived from the adult V. coerulea plant and its protocorms to inhibit the MMP-1 activities was evaluated through a spectrophotometric assay, which was modified from the methods described by Thring et al. (2009). Initially, an MMP-1 solution at a concentration of 0.1 units/mL was prepared, comprising MMP-1 sourced from C. histolyticum, along with 400 mM NaCl, 10 mM CaCl2, and 50 mM tricine buffer pH 7.5. Subsequently, 20 µL of the sample solution was combined with 20 µL of the MMP-1 solution and 80 µL of Tricine buffer pH 7.5. […] Immediately, the absorbance was measured kinetically at 340 nm for a duration of 20 min using a multimode microplate reader (BMG Labtech GmbH, Ortenberg, Germany). The findings were then expressed as the percentage of MMP-1 inhibition, calculated according to the subsequent equation:MMP-1 inhibition (%) = [(a − b)/a] × 100,(3) where a is the reaction rate of the combination without a sample, while b is the reaction rate of the combination with a sample. Various concentrations of each extract were evaluated, and their MMP-1 inhibitions were plotted against their logarithmic concentrations to generate dose–response curves. The IC50 values were calculated from the curves using GraphPad Prism (version 8.0.2, GraphPad Software, Boston, MA, USA). […]

[4] = Ferric-reducing antioxidant power (FRAP) assay; type: biochemical; conditions: mean ± SD, triplicate
Description: The capability of the extracts derived from the adult V. coerulea plant and its protocorms to reduce ferric was evaluated through a FRAP assay, which was modified from the methods described by Saeio et al. (2011). Initially, 20 µL of the sample solution was combined with 180 µL of the FRAP solution, prepared by mixing 0.3 M acetate buffer pH 3.6, 10 mM TPTZ in 40 mM HCl solution and 20 mM ferric chloride solution. After incubating the resulting mixture at room temperature for 5 min, the absorbance was measured at 595 nm using a multimode microplate reader (BMG Labtech GmbH, Ortenberg, Germany). The findings were then expressed as the percentage of ferric reducing ability, calculated according to the subsequent equation:Ferric reducing abilities (%) = [(a − b)/a] × 100,(2) where a is the UV absorbance of the combination without a sample, while b is the UV absorbance of the combination with a sample. Various concentrations of each extract were evaluated, and their ferric reducing abilities were plotted against their logarithmic concentrations to generate dose–response curves. […] L-ascorbic acid was used as the positive control. The analysis was performed in triplicate.

[5] = DPPH radical scavenging assay; type: biochemical; conditions: mean ± SD, triplicate; ND = not determined due to low potency
Description: The capability of the extracts derived from the adult V. coerulea plant and its protocorms to scavenge DPPH radicals was evaluated through a DPPH assay, which was modified from the methods described by Brem et al. (2004). Initially, 20 µL of the sample solution was combined with 180 µL of a DPPH solution, prepared by dissolving […] DPPH in DI water. After incubating the resulting mixture in darkness at room temperature for 30 min, the absorbance was measured at 520 nm using a multimode microplate reader (BMG Labtech GmbH, Ortenberg, Germany). […] Various concentrations of each extract were evaluated, and their DPPH inhibitions were plotted against their logarithmic concentrations to generate dose–response curves. […] L-ascorbic acid was used as the positive control. The analysis was performed in triplicate.

T1 sequence (P00772 27-266): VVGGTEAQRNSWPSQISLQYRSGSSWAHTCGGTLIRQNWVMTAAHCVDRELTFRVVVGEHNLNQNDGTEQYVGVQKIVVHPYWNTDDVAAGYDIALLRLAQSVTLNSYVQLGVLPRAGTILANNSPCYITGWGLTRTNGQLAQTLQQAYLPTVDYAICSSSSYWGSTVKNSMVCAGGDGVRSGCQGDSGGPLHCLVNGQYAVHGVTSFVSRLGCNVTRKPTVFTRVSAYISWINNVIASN

Compound	Irritation Level [1]	Irritation Score (IS) [1]	IC50 Elastase Inhibition [2]	IC50 Collagenase Inhibition [3]	IC50 Ferric Reducing Capacity [4]	IC50 DPPH Inhibition [5]	pIC50 [2]
CCCCCCCCCCCCOS(=O)(=O)[O-].[Na+] [SLS, sodium lauryl sulfate]	Severe irritation (9.0–21.0 for severe irritation)	15.13 ± 0.3					
O=C(O[C@@H]1Cc2c(O)cc(O)cc2O[C@@H]1c1cc(O)c(O)c(O)c1)c1cc(O)c(O)c(O)c1 [EGCG, epigallocatechin gallate]			0.1 ± 0.0 ^a µg/mL	16.9 ± 3.2 ^b µg/mL			
O=C1O[C@H]([C@@H](O)CO)C(O)=C1O [AS, ascorbic acid]					2.4 ± 0.7 ^a µg/mL	3.5 ± 2.9 ^a µg/mL	
C[C@@H]1O[C@@H](OC[C@H]2O[C@@H](Oc3c(-c4ccc(O)c(O)c4)oc4cc(O)cc(O)c4c3=O)[C@H](O)[C@@H](O)[C@@H]2O)[C@H](O)[C@H](O)[C@H]1O [RT, rutin]				7.6 ± 3.4 ^a µg/mL	12.9 ± 2.0 ^b µg/mL	3.2 ± 2.7 ^a µg/mL	4.76
